Test results as given in publication PMC2806825, “The Expression Level of CB1 and CB2 Receptors Determines Their Efficacy at Inducing Apoptosis in Astrocytomas” (PLoS ONE, 2010).

Columns and labels:
DBT cells = test: Cell viability by WST-1 conversion, wild type DBT cells and DBT subclones; assay type: cell-based, mouse
Protocol: (§1) Cells were expanded in 24-well plates (10^5 cells per well) in culture media (0.5 ml per well). Once they reached ∼70% confluence, they were rinsed with PBS and kept for an additional 24 hrs in serum-deprived media, at which time drugs or vehicle (DMSO, 0.1%) prepared in 50 µl serum-deprived media were directly added to each well. After 1, 3, or 5 days, cell viability was assessed using the Cell Proliferation Reagent WST-1 (Roche, Indianapolis, IN). Briefly, WST-1 reagent (50 µl) was added to each well for 4 hrs at 37°C with 5% CO2, and then WST-1 products were read at 450 nm using Packard SpectraCount™. Apoptosis was assessed using PI and annexin V (Pacific Blue™, Invitrogen). Briefly, cells were detached using trypsin, rinsed with 25°C PBS and resuspended to a density of 10^6 cells per ml of annexin-binding buffer (10 mM HEPES, 140 mM NaCl, 2.5 mM CaCl2, pH 7.4). PI (100 ng) and annexin V were added to 100 µl of cell suspension and incubated at 25°C for 30 min. Additional annexin-binding buffer was added (400 µl) and samples were sorted (10,000 events) on a LSR II flow cytometer (BD Biosciences, San Jose, CA) and the data analyzed using FlowJo (Tree Star, Inc., Ashland, OR).

CB2 receptors [1] = target: T1, CB2 receptors (Mus musculus, UniProt P47936); test: AKT phosphorylation by Luminex multiplex immunoassay in CB2-expressing DBT subclones; assay type: cell-based; conditions: for AKT phosphorylation: 1 µM
T1 construct: expressed in transfected cells
Protocol: (§2) Cells were expanded in Costar 24-well plates (10^5 cells per well) in culture media (0.5 ml per well). Once they reached ∼70% confluence, they were rinsed with PBS and kept for an additional 24 hrs in serum-deprived media, at which time point drugs or vehicle (DMSO, 0.1%) prepared in 50 µl serum-deprived media were directly added to each well for the corresponding number of minutes. We chose to directly administer the drugs to cell culture media instead of replacing the media to avoid stress-induced increases in basal kinase phosphorylation (Figure S1). To quantify Erk phosphorylation, reactions were stopped by removing the media and adding NuPAGE® LDS sample buffer (300 µl, Invitrogen, Carlsbad, CA) supplemented with 2-mercaptoethanol (1%). An aliquot of each sample (20 µl) was loaded onto NuPAGE® 4–12% Bis-Tris pre-cast gels (Inivtrogen) and electrophoresed according to the manufacturer's instructions. Gels were electrophoretically transferred to P-nitrocellulose membrane (Millipore, Billerica, MA) and blocked in LiCOR blocking buffer (LiCOR, Lincoln, NE) for 1 hr at 25°C. Membranes were then incubated in blocking buffer containing rabbit anti-phospho-p44/42 antibody (1∶1000, Cell Signaling Technology, Inc., Danvers, MA) for 1 hr at 25°C. Membranes were washed 3 times with Tris (50 mM) buffered saline containing 0.1% Tween-20 (TBS-T). Membranes were then incubated in blocking buffer containing donkey anti-rabbit antibody conjugated to IRDye 800 (1∶7500, Rockland Immunochemicals, Inc., Gilbertsville, PA) for 1 hr at 25°C. Membranes were washed 3 times with TBS-T. The fluorescence intensity of each band was quantified using the LiCOR Odyssey. To quantify AKT, JNK, p38 and GSKβ phosphorylation, reactions were stopped by addition of NP40 cell lysis buffer (100 µl, Invitrogen). Substrate phosphorylation was quantified using a Biosource Multiplex Bead Immunoassay kit (Invitrogen) according to the manufacturer's instructions and using a Luminex 100™ instrument (Luminex, Austin, TX).

CB2 receptors [2] = target: T1, CB2 receptors; test: ERK1/2 phosphorylation by Western blot in CB2-expressing DBT subclones; assay type: cell-based
Protocol: as §2

CB2 receptors [3] = target: T1, CB2 receptors; test: Radioligand saturation binding with [3H]CP-55,940 on membranes of CB2-expressing DBT subclones; conditions: mean of 3–5 determinations
Protocol: (§3) Cells (10^6) were expanded in 10 cm dishes using 10 ml culture media. Once they reached ∼70% confluence, they were rinsed with PBS and kept for an additional 24 hrs in serum-deprived media, which is composed of DMEM+GlutaMAX™-I supplemented with fatty acid free bovine serum albumin (0.1%, BSA, Sigma-Aldrich, St. Louis, MO) and insulin-transferin-sodium selenite liquid media (1×, ITS, Sigma-Aldrich). For qPCR, media was removed and cells washed once with 10 ml PBS, then cells were scraped and total RNA isolated using RNeasy extraction kit (QIAGEN) according to the manufacturer's instructions. The following primer and TaqMan probe sequences were generated using Primer Express (Perkin-Elmer Applied Biosystems, Foster City, CA): mCB1 forward, 5′-[…]-3′, reverse, 5′-[…]-3′, probe, 5′-([…])-3′; mCB2 forward, 5′-[…]-3′, reverse, 5′-[…]-3′, probe, 5′-([…])-3′. Total RNA from each sample (2.5 ng) was reverse transcribed in the same 10 µl quantitative PCR reaction mix using the Brilliant Single-Step Quantitative RT-PCR Core Reagent Kit (Stratagene, La Jolla, CA). Combined reactions were carried out on a Stratagene Mx3000P Real-Time Detection System using the following protocol: 30 min single-strand synthesis reaction at 45°C; 40-cycle, two-step PCR amplification (15 sec at 95°C followed by 1 min at 56°C). Duplicate reactions with and without reverse transcriptase were run for each sample. For radioligand binding, media was removed and cells washed once with 10 ml PBS. Cells were scraped in 1 ml buffer (50 mM Tris-HCl, 3 mM MgCl2, 1 mM EDTA, pH 7.4) and pulse homogenized 10 sec using PRO200 tissue homogenizer (PRO Scientific, Oxford, CT). Crude membrane preparations were generated by centrifugation of cell homogenates for 20 min at >10,000×g. Cell pellets were resuspended in buffer containing BSA (0.1%, fatty acid free) and 50 µg protein added to siliconized glass tubes for assay. […] Radioactivity on filters was measured using scintillation counter.

CB1 receptors = target: T2, CB1 receptors (Mus musculus, UniProt P47746); test: Radioligand saturation binding with [3H]CP-55,940 on membranes of CB1-expressing DBT subclones; conditions: mean of 3–5 determinations
T2 construct: expressed in transfected cells
Protocol: as §3

wild-type DBT cells [4] = test: Radioligand binding with [3H]CP-55,940 on wild-type DBT cells; design: species or system mouse
Protocol: as §3, with “56°C).” for “56°C). Duplicate reactions with and without reverse transcriptase were run for each sample. For radioligand binding, media was removed and cells washed once with 10 ml PBS. Cells were scraped in 1 ml buffer (50 mM Tris-HCl, 3 mM MgCl2, 1 mM EDTA, pH 7.4) and pulse homogenized 10 sec using PRO200 tissue homogenizer (PRO Scientific, Oxford, CT). Crude membrane preparations were generated by centrifugation of cell homogenates for 20 min at >10,000×g. Cell pellets were resuspended in buffer containing BSA (0.1%, fatty acid free) and 50 µg protein added to siliconized glass tubes for assay.”

wild type DBT cells = test: Cell viability by WST-1 conversion, wild type DBT cells; assay type: cell-based, mouse
Protocol: as §1

CB1-low DBT cells [5] = test: Cell viability by WST-1 conversion, CB1-low DBT cells; assay type: cell-based, mouse
Protocol: as §1

[6] = test system: ERK1/2 phosphorylation in wild-type DBT cells; test: ERK1/2 phosphorylation in wild-type DBT cells; assay type: cell-based, mouse; conditions: 1 µM
Protocol: as §2, with “Gels were electrophoretically transferred to P-nitrocellulose membrane (Millipore, Billerica, MA) and blocked in LiCOR blocking buffer (LiCOR, Lincoln, NE) for 1 hr at 25°C. Membranes were then incubated in blocking buffer containing rabbit anti-phospho-p44/42 antibody (1∶1000, Cell Signaling Technology, Inc., Danvers, MA) for 1 hr at 25°C. Membranes were washed 3 times with Tris (50 mM) buffered saline containing 0.1% Tween-20 (TBS-T). Membranes were then incubated in blocking buffer containing donkey anti-rabbit antibody conjugated to IRDye 800 (1∶7500, Rockland Immunochemicals, Inc., Gilbertsville, PA) for 1 hr at 25°C.” left out

CB2 receptors [7] = target: T1, CB2 receptors; test: JNK and p38 phosphorylation by Luminex multiplex immunoassay in CB2-high DBT clone; assay type: cell-based; conditions: 1 µM, lasted throughout 30 min incubation
Protocol: as §2, with “Gels were electrophoretically transferred to P-nitrocellulose membrane (Millipore, Billerica, MA) and blocked in LiCOR blocking buffer (LiCOR, Lincoln, NE) for 1 hr at 25°C. Membranes were then incubated in blocking buffer containing rabbit anti-phospho-p44/42 antibody (1∶1000, Cell Signaling Technology, Inc., Danvers, MA) for 1 hr at 25°C. Membranes were washed 3 times with Tris (50 mM) buffered saline containing 0.1% Tween-20 (TBS-T). Membranes were then incubated in blocking buffer containing donkey anti-rabbit antibody conjugated to IRDye 800 (1∶7500, Rockland Immunochemicals, Inc., Gilbertsville, PA) for 1 hr at 25°C.” left out

CB1-low DBT cells [8] = test: Apoptosis by propidium iodide and annexin V FACS, CB1-low DBT cells; assay type: cell-based, mouse; conditions: 1 µM
Protocol: as §1

wild-type DBT cells [9] = test: Apoptosis by propidium iodide and annexin V FACS, wild-type DBT cells; assay type: cell-based, mouse; conditions: 10 µM
Protocol: as §1

[10] = test system: AKT phosphorylation in wild type DBT cells; test: AKT phosphorylation in wild type DBT cells; assay type: cell-based, mouse; conditions: 1 µM
Protocol: as §2, with “Gels were electrophoretically transferred to P-nitrocellulose membrane (Millipore, Billerica, MA) and blocked in LiCOR blocking buffer (LiCOR, Lincoln, NE) for 1 hr at 25°C. Membranes were then incubated in blocking buffer containing rabbit anti-phospho-p44/42 antibody (1∶1000, Cell Signaling Technology, Inc., Danvers, MA) for 1 hr at 25°C. Membranes were washed 3 times with Tris (50 mM) buffered saline containing 0.1% Tween-20 (TBS-T). Membranes were then incubated in blocking buffer containing donkey anti-rabbit antibody conjugated to IRDye 800 (1∶7500, Rockland Immunochemicals, Inc., Gilbertsville, PA) for 1 hr at 25°C.” left out

GSK-3β phosphorylation = GSK-3β phosphorylation by Luminex multiplex immunoassay in DBT subclones; assay type: cell-based, mouse; conditions: any of the subclones, throughout 30 min incubation; data not shown
Protocol: as §2, with “Gels were electrophoretically transferred to P-nitrocellulose membrane (Millipore, Billerica, MA) and blocked in LiCOR blocking buffer (LiCOR, Lincoln, NE) for 1 hr at 25°C. Membranes were then incubated in blocking buffer containing rabbit anti-phospho-p44/42 antibody (1∶1000, Cell Signaling Technology, Inc., Danvers, MA) for 1 hr at 25°C. Membranes were washed 3 times with Tris (50 mM) buffered saline containing 0.1% Tween-20 (TBS-T). Membranes were then incubated in blocking buffer containing donkey anti-rabbit antibody conjugated to IRDye 800 (1∶7500, Rockland Immunochemicals, Inc., Gilbertsville, PA) for 1 hr at 25°C.” left out

[11] = antagonist 3 µM added 10 min before CP, CB2 subclones

T1 sequence (P47936 whole entry): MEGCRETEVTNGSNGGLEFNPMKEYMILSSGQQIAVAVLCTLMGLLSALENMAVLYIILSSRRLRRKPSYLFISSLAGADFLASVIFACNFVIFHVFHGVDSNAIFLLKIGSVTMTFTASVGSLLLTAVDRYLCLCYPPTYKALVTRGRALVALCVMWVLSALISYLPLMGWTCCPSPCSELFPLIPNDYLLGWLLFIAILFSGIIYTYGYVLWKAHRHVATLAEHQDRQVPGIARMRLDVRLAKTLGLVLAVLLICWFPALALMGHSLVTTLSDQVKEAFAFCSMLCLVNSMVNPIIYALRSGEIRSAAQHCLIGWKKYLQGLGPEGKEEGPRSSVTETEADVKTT
T2 sequence (P47746 whole entry): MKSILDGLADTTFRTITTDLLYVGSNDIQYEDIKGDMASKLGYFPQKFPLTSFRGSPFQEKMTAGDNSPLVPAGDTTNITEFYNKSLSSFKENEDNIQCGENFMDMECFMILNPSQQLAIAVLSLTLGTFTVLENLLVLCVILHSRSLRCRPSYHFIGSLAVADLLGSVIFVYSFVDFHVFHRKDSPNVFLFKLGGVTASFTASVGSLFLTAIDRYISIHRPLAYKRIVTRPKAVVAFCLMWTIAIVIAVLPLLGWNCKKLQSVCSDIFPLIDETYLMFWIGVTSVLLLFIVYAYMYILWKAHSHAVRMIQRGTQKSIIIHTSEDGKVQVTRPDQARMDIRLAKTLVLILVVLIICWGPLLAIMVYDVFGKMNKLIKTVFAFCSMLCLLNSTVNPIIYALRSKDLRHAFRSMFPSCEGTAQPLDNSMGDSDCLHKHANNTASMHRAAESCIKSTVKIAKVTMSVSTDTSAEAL

CCN(CC)CCCCN1c2ccccc2Oc2ccc(Cl)cc21.Cl [Inhibitor X]
Effect on killing by 1 µM CP-55,940 (WST-1) (DBT cells; 5 µM added 10 min before CP, DBT subclones normally resistant, 5 days): uncovered the ability of 1 µM CP-55,940 to kill | Effect by itself on cell viability (WST-1) (DBT cells; 5 µM, DBT subclones, 5 days): no effect

5- (4-chloro-3- methyl- phenyl)-1- [(4- methylphenyl)methyl]- N-(1,3,3- trimethylnorbornan- 2- yl)- pyrazole- 3- carboxamide [SR144528]
Effect on CP-55,940 (1 µM)-induced AKT phosphorylation (CB2 receptors [1]; [11]): antagonized | Effect on CP-55,940 (1 µM)-induced ERK1/2 phosphorylation (CB2 receptors [2]; [11]): significantly attenuated

CCCCCCC(C)(C)c1ccc([C@@H]2C[C@H](O)CC[C@H]2CCCO)c(O)c1 [[^3H]CP-55,940]
Kd (CB2 receptors [3]; CB2-high subclone 1D6): 0.6 nM | Kd (CB2 receptors [3]; CB2-low subclone 2G5): 0.8 nM | Kd (CB2 receptors [3]; CB2-mid subclone 2H1): 0.4 nM | Kd (CB1 receptors; CB1-high subclone E5): 0.7 nM | Kd (CB1 receptors; CB1-low subclone E3): 0.8 nM | Kd (CB1 receptors; CB1-mid subclone E7): 0.8 nM | Radioligand binding (wild-type DBT cells [4]): no binding

COc1cccc(-c2cc(=O)c3ccccc3o2)c1N [PD98059]
Effect on 10 µM CP-55,940-induced killing (wild type DBT cells; inhibitor 10 µM pretreatment, wild-type DBT cells): partially prevented | Effect on 1 µM CP-55,940-induced killing (CB1-low DBT cells [5]; inhibitor 10 µM pretreatment, CB1-low DBT cells): partially prevented

(−)-cis-3-[2-hydroxy-4-(1,1-dimethylheptyl)phenyl]-trans-4-(3-hydroxypropyl) cyclohexanol [CP-55,940]
AKT phosphorylation (CB2 receptors [1]; CB2-high clone, during the entire 30 min incubation): above 250 % of basal | AKT phosphorylation (CB2 receptors [1]; CB2-high subclone): most pronounced increase | AKT phosphorylation (CB2 receptors [1]; CB2-low and CB2-mid subclones): small, but significant increase | ERK1/2 phosphorylation above vehicle-treated controls (CB2 receptors [2]; 1 µM, 3 min, CB2-low, CB2-mid, CB2-high subclones): significant increase | Time of peak of ERK1/2 phosphorylation (CB2 receptors [2]; 1 µM, CB2-expressing subclones): 3 min | Time of return of ERK1/2 phosphorylation to basal (CB2 receptors [2]; 1 µM, CB2-expressing subclones): 10 to 20 min | EC50 (wild type DBT cells; wild type DBT cells, Figure 3c, read-out: EC50 of cell death (WST-1)): 5000 nM | ERK1/2 phosphorylation [6]: did not affect | Phosphorylation state of JNK and p38 (CB2 receptors [7]): 150–170 % of basal | Cell death by apoptosis (CB1-low DBT cells [8]; 3 days after treatment): 15% | Cell death by apoptosis (CB1-low DBT cells [8]; after five days): 48% | Cell death (WST-1) (DBT cells; 10 µM, wild type DBT cells and all six subclones, five days after treatment): 35–90% | Cell death by apoptosis (wild-type DBT cells [9]; 3 days after treatment): 27% | Cell death by apoptosis (wild-type DBT cells [9]; after five days): 78% | AKT phosphorylation [10]: did not increase | Cell death (WST-1) (CB1-low DBT cells [5]; 1 µM, CB1-low DBT subclone, five days after treatment): ~50% | EC50 (CB1-low DBT cells [5]; CB1-low DBT cells, Figure 3c, read-out: EC50 of cell killing (WST-1)): 560 nM | Phosphorylation state of GSK-3β (GSK-3β phosphorylation): did not significantly affect

Cc1c(C(=O)NN2CCCCC2)nn(-c2ccc(Cl)cc2Cl)c1-c1ccc(Cl)cc1 [SR141716A, 5-(4-chlorophenyl)-1-(2,4-dichlorophenyl)-4-methyl-N-(1-piperidyl)-1H-pyrazole-3-carboxamide]
Effect on 10 µM CP-55,940-induced cell death (wild type DBT cells; antagonist 5 µM pretreatment, wild type DBT cells): did not affect | Effect on 1 µM CP-55,940-induced killing (CB1-low DBT cells [5]; antagonist 5 µM pretreatment, CB1-low DBT cells): blocked
